# Assay results reported in patent publication US11793824B2, “Administration of nicotinamide mononucleotide in the treatment of disease” (Washington University, priority 2013, dated 2023).
# Columns and labels:
# Assay type in all cases: in vivo, mouse
# [1] = Fundus biomicroscopy of aged mice; conditions: 18 months of age
# Description: (§1) A 12 month-long NMN administration study using wild-type mice under a regular chow-fed condition was conducted. NMN was administered through drinking water, and two doses of NMN, 100 and 300 mg/kg body weight/day, were tested. […] To assess beneficial and possible adverse effects of NMN, a variety of physiological parameters were periodically monitored, including body weight, body temperature, food and water intake, fed and fasted blood glucose levels, fed and fasted plasma lipid panels, and glucose and insulin tolerance, in NMN-administered and control mice. Blood chemistry, blood cell counts, urine strip test, and other physiological tests including physical activity test were also checked.
# In the long-term NMN administration study (See Methods; Administration of NMN through Drinking Water and Determination of NMN Stability and Toxicity), retinal function was evaluated by fundus biomicroscopy and electroretinography (ERG). FIG. 11 illustrates fundus biomicroscopy images from control and NMN-administered mice. For each group, five mice were examined, and two representative images are shown.
# [2] = Age-associated body weight increase, 12 month-long NMN administration; conditions: 12 months
# Description: as §1
# In these experiments, NMN was administered to mice at a dosage rate of 100 mg/kg per day or 300 mg/kg per day. […] The results were analyzed with two-way RANOVA and one-way RANOVA with the unweighted linear term. All values are presented as mean±SEM (n=15, 14, and 14 for control, 100, and 300 mg/kg NMN-administered groups).
# [3] = Age-associated increases in blood lipid levels
# Description: as §1
# Blood levels of cholesterol, triglycerides, and free fatty acids are shown over 12 months in the control and the 100 and 300 mg/kg NMN-administered cohorts in FIG. 7. The results were analyzed with two-way RANOVA and one-way RANOVA. All values are presented as mean±SEM (n=25 for each group).
# Without being limited by theory, since NMN has an effect of suppressing age-associated body weight increase, it was hypothesized that NMN's effect on blood lipid levels could be due to the reduction in body weight. To address this possibility, lipid levels were compared among individual mice whose average body weights were matched through control and experimental cohorts. Body weight-matched blood levels of cholesterol, triglycerides, and free fatty acids are shown over 12 months in the control and the 100 and 300 mg/kg NMN-administered cohorts in FIG. 8. The results were analyzed with two-way RANOVA and one-way RANOVA. All values are presented as mean±SEM (n=10-15 for each group). […] All values are presented as mean±SEM (n=10-15 for each group). These findings indicate that NMN has the effect of suppressing the age-associated increase in blood FFA levels, independent of the reduction in body weight. Without being limited by theory, the effect of NMN on blood cholesterol levels may be secondary to the effect of suppressing age-associated body weight increase.
# [4] = 100 and 300 mg/kg groups vs control
compound,measurement,setting,value
"NC(=O)c1ccc[n+]([C@@H]2O[C@H](COP(=O)([O-])O)[C@@H](O)[C@H]2O)c1 [NMN, nicotinamide mononucleotide]",mice with dramatic reductions in intraretinal whitish deposits,[1]; 100 mg/kg,two
same,mice with dramatic reductions in intraretinal whitish deposits,[1]; 300 mg/kg,four
same,average percent body weight gain suppression normalized to control mice,[2]; 100 mg/kg group,12%
same,average percent body weight reduction normalized to control mice,[2]; 100 mg/kg group,4%
same,average percent body weight gain suppression normalized to control mice,[2]; 300 mg/kg group,30%
same,average percent body weight reduction normalized to control mice,[2]; 300 mg/kg group,9%
same,increase of FFAs over time after body weight match,[3]; 100 mg/kg group,showed significant increases over time
same,increase of blood FFAs over time,"[3]; 100 mg/kg group, first 6 months",statistically significant increases
same,increase of FFAs over time after body weight match,[3]; 300 mg/kg group,did not show any statistically significant increases over time
same,increase of blood FFAs over time,[3]; 300 mg/kg group,did not show any statistically significant increase over time
same,age-associated increases in blood levels of FFAs,"[3]; 300 mg/kg, particularly at the 6-month time point",suppressed age-associated increases in blood levels of FFAs
same,FFA levels after matching body weight,[3]; [4],still lower
same,blood cholesterol levels after matching body weight,[3]; [4],very similar through control and experimental groups
same,age-associated increases in blood cholesterol and free fatty acids,"[3]; 100 and 300 mg/kg groups, 12 months",tended to be suppressed
